For this assay, the target named is T1, GABA A α5 (α5β3γ2) (Homo sapiens, UniProt P18507+P31644).
T1 construct: expressed in transfected cells; host or cells: HEK293 (transiently transfected), membranes
As to the kind of experiment: [3H]flumazenil competition binding assay, human GABA A α5 receptors in HEK293 cells. Conditions: competition for [3H]flumazenil (0.5 nM); HEK293 cells expressing human (transiently transfected) receptors; means of two determinations; read-out: hKi GABA A α5. On the procedure: Membrane Preparation and Binding Assay
The affinity of compounds at GABA A receptor subtypes was measured by competition for [3H]flumazenil (85 Ci/mmol; Roche) binding to HEK293 cells expressing rat (stably transfected) or human (transiently transfected) receptors of composition α1β3γ2, α2β3γ2, α3β3γ2 and α5β3γ2.
Cell pellets were suspended in Krebs-tris buffer (4.8 mM KCl, 1.2 mM CaCl2, 1.2 mM MgCl2, 120 mM NaCl, 15 mM Tris; pH 7.5; binding assay buffer), homogenized by polytron for ca. 20 sec on ice and centrifuged for 60 min at 4° C. (50000 g; Sorvall, rotor: SM24=20000 rpm). The cell pellets were resuspended in Krebs-tris buffer and homogenized by polytron for ca. 15 sec on ice. Protein was measured (Bradford method, Bio-Rad) and aliquots of 1 mL were prepared and stored at −80° C.
Radioligand binding assays were carried out in a volume of […] (96-well plates) which contained […] of cell membranes, [3H]flumazenil at a concentration of 1 nM for α1, α2, α3 subunits and 0.5 nM for α5 subunits and the test compound in the range of […]. Nonspecific binding was defined by 10^−5 M diazepam and typically represented less than 5% of the total binding. Assays were incubated to equilibrium for 1 hour at 4° C. and harvested onto GF/C uni-filters (Packard) by filtration using a Packard harvester and washing with ice-cold wash buffer (50 mM Tris; pH 7.5). After drying, filter-retained radioactivity was detected by liquid scintillation counting. Ki values were calculated using Excel-Fit (Microsoft) and are the means of two determinations.
Representative test results, obtained by the above described assay measuring binding affinity to HEK293 cells expressing human (h) receptors, are shown in table 1 below.

In the case of `O=C(N[C@H]1CCC[C@@H]1O)c1ccc(OCc2c(-c3ccc(F)cc3)noc2CO)nc1` (racemic) [Example 10, 6-[3-(4-Fluoro-phenyl)-5-hydroxymethyl-isoxazol-4-ylmethoxy]-N-((1R,2R)-2-hydroxy-cyclopentyl)-nicotinamide or 6-[3-(4-Fluoro-phenyl)-5-hydroxymethyl-isoxazol-4-ylmethoxy]-N-((1S,2S)-2-hydroxy-cyclopentyl)-nicotinamide], the Ki turned out to be 1.6 nM. The value for `O=C(N[C@@H]1CCC[C@H]1O)c1ccc(OCc2c(-c3ccc(Cl)cc3)noc2CO)nc1` (single isomer, unassigned) [Example 26, 6-[3-(4-Chloro-phenyl)-5-hydroxymethyl-isoxazol-4-ylmethoxy]-N-((1S,2S)-2-hydroxy-cyclopentyl)-nicotinamide or 6-[3-(4-Chloro-phenyl)-5-hydroxymethyl-isoxazol-4-ylmethoxy]-N-((1R,2R)-2-hydroxy-cyclopentyl)-nicotinamide] was 1.2 nM; that for `O=C(N[C@H]1CCC[C@@H]1O)c1ccc(OCc2c(-c3ccc(Cl)cc3)noc2CO)nc1` (single isomer, unassigned) [Example 27, 6-[3-(4-Chloro-phenyl)-5-hydroxymethyl-isoxazol-4-ylmethoxy]-N-([1R,2R]-2-hydroxy-cyclopentyl)-nicotinamide or 6-[3-(4-Chloro-phenyl)-5-hydroxymethyl-isoxazol-4-ylmethoxy]-N-([1S,2S]-2-hydroxy-cyclopentyl)-nicotinamide] was 0.6 nM; that for `CC(C)NC(=O)c1ccc(OCc2c(-c3ccccc3)noc2CO)nc1` [Example 1, 6-(5-Hydroxymethyl-3-phenyl-isoxazol-4-ylmethoxy)-N-isopropyl-nicotinamide] was 2.2 nM. The figure for `O=C(NCCO)c1ccc(OCc2c(-c3ccccc3)noc2CO)nc1` [Example 2, N-(2-Hydroxy-ethyl)-6-(5-hydroxymethyl-3-phenyl-isoxazol-4-ylmethoxy)-nicotinamide] is 1.6 nM; for `O=C(c1ccc(OCc2c(-c3ccc(F)cc3)noc2CO)nc1)N1CCS(=O)(=O)CC1` [Example 3, (1,1-Dioxo-1,6-thiomorpholin-4-yl)-{6-[3-(4-fluoro-phenyl)-5-hydroxymethyl-isoxazol-4-ylmethoxy]-pyridin-3-yl}-methanone] it is 8.6 nM; for `CC(C)NC(=O)c1ccc(OCc2c(-c3ccc(F)cc3)noc2CO)nc1` [Example 4, 6-[3-(4-Fluoro-phenyl)-5-hydroxymethyl-isoxazol-4-ylmethoxy]-N-isopropyl-nicotinamide] it is 1.1 nM. The figure for `O=C(NC1CCOCC1)c1ccc(OCc2c(-c3ccc(F)cc3)noc2CO)nc1` [Example 5, 6-[3-(4-Fluoro-phenyl)-5-hydroxymethyl-isoxazol-4-ylmethoxy]-N-(tetrahydro-pyran-4-yl)-nicotinamide] is 1.3 nM. Turning to `O=C(NCC1CC1)c1ccc(OCc2c(-c3ccc(F)cc3)noc2CO)nc1` [Example 6, N-Cyclopropylmethyl-6-[3-(4-fluoro-phenyl)-5-hydroxymethyl-isoxazol-4-ylmethoxy]-nicotinamide], the Ki was found to be 1.7 nM. The value for `O=C(NCC(F)(F)F)c1ccc(OCc2c(-c3ccc(F)cc3)noc2CO)nc1` [Example 7, 6-[3-(4-Fluoro-phenyl)-5-hydroxymethyl-isoxazol-4-ylmethoxy]-N-(2,2,2-trifluoro-ethyl)-nicotinamide] was 1.3 nM. As for `O=C(NC1CC1)c1ccc(OCc2c(-c3ccc(F)cc3)noc2CO)nc1` [Example 8, N-Cyclopropyl-6-[3-(4-fluoro-phenyl)-5-hydroxymethyl-isoxazol-4-ylmethoxy]-nicotinamide], the Ki stood at 1.7 nM. The value for `COCCNC(=O)c1ccc(OCc2c(-c3ccc(F)cc3)noc2CO)nc1` [Example 9, 6-[3-(4-Fluoro-phenyl)-5-hydroxymethyl-isoxazol-4-ylmethoxy]-N-(2-methoxy-ethyl)-nicotinamide] was 4.1 nM; that for `CC(NC(=O)c1ccc(OCc2c(-c3ccc(F)cc3)noc2CO)nc1)C(F)(F)F` (centres unmarked) [Example 11, 6-[3-(4-Fluoro-phenyl)-5-hydroxymethyl-isoxazol-4-ylmethoxy]-N-(2,2,2-trifluoro-1-methyl-ethyl)-nicotinamide] was 1.4 nM.

With `CC(C)(CO)NC(=O)c1ccc(OCc2c(-c3ccc(F)cc3)noc2CO)nc1` [Example 12, 6-[3-(4-Fluoro-phenyl)-5-hydroxymethyl-isoxazol-4-ylmethoxy]-N-(2-hydroxy-1,1-dimethyl-ethyl)-nicotinamide], the Ki amounted to 10.1 nM. The value for `O=C(NCC(F)(F)C(F)(F)F)c1ccc(OCc2c(-c3ccc(F)cc3)noc2CO)nc1` [Example 13, 6-[3-(4-Fluoro-phenyl)-5-hydroxymethyl-isoxazol-4-ylmethoxy]-N-(2,2,3,3,3-pentafluoro-propyl)-nicotinamide] was 3.4 nM; that for `CC[C@H](CO)NC(=O)c1ccc(OCc2c(-c3ccc(F)cc3)noc2CO)nc1` [Example 14, 6-[3-(4-Fluoro-phenyl)-5-hydroxymethyl-isoxazol-4-ylmethoxy]-N-((R)-1-hydroxymethyl-propyl)-nicotinamide] was 3.5 nM; that for `CC[C@@H](CO)NC(=O)c1ccc(OCc2c(-c3ccc(F)cc3)noc2CO)nc1` [Example 15, 6-[3-(4-Fluoro-phenyl)-5-hydroxymethyl-isoxazol-4-ylmethoxy]-N-((S)-1-hydroxymethyl-propyl)-nicotinamide] was 0.6 nM.

For the compound `Cn1cc(NC(=O)c2ccc(OCc3c(-c4ccc(F)cc4)noc3CO)nc2)cn1` [Example 16, 6-[3-(4-Fluoro-phenyl)-5-hydroxymethyl-isoxazol-4-ylmethoxy]-N-(1-methyl-1H-pyrazol-4-yl)-nicotinamide], the Ki amounted to 0.9 nM. The value for `CC1(NC(=O)c2ccc(OCc3c(-c4ccc(F)cc4)noc3CO)nc2)COC1` [Example 17, 6-[3-(4-Fluoro-phenyl)-5-hydroxymethyl-isoxazol-4-ylmethoxy]-N-(3-methyl-oxetan-3-yl)-nicotinamide] was 1.8 nM; that for `O=C(c1ccc(OCc2c(-c3ccc(Cl)cc3)noc2CO)nc1)N1CCS(=O)(=O)CC1` [Example 18, {6-[3-(4-Chloro-phenyl)-5-hydroxymethyl-isoxazol-4-ylmethoxy]-pyridin-3-yl}-(1,1-dioxo-1-thiomorpholin-4-yl)-methanone] was 3.5 nM; that for `CC(C)NC(=O)c1ccc(OCc2c(-c3ccc(Cl)cc3)noc2CO)nc1` [Example 19, 6-[3-(4-Chloro-phenyl)-5-hydroxymethyl-isoxazol-4-ylmethoxy]-N-isopropyl-nicotinamide] was 0.4 nM. Regarding `O=C(NC1CC1)c1ccc(OCc2c(-c3ccc(Cl)cc3)noc2CO)nc1` [Example 20, 6-[3-(4-Chloro-phenyl)-5-hydroxymethyl-isoxazol-4-ylmethoxy]-N-cyclopropyl-nicotinamide], the Ki amounted to 1 nM.

Turning to `O=C(NCC(F)(F)F)c1ccc(OCc2c(-c3ccc(Cl)cc3)noc2CO)nc1` [Example 21, 6-[3-(4-Chloro-phenyl)-5-hydroxymethyl-isoxazol-4-ylmethoxy]-N-(2,2,2-trifluoro-ethyl)-nicotinamide], the Ki is 2 nM. For `CN(C)C(=O)c1ccc(OCc2c(-c3ccc(Cl)cc3)noc2CO)nc1` [Example 22, 6-[3-(4-Chloro-phenyl)-5-hydroxymethyl-isoxazol-4-ylmethoxy]-N,N-dimethyl-nicotinamide], the Ki was 43.4 nM. For `CC(C)(CO)NC(=O)c1ccc(OCc2c(-c3ccc(Cl)cc3)noc2CO)nc1` [Example 23, 6-[3-(4-Chloro-phenyl)-5-hydroxymethyl-isoxazol-4-ylmethoxy]-N-(2-hydroxy-1,1-dimethyl-ethyl)-nicotinamide], the Ki was determined as 3.9 nM.

Regarding `Cn1cc(NC(=O)c2ccc(OCc3c(-c4ccc(Cl)cc4)noc3CO)nc2)cn1` [Example 24, 6-[3-(4-Chloro-phenyl)-5-hydroxymethyl-isoxazol-4-ylmethoxy]-N-(1-methyl-1H-pyrazol-4-yl)-nicotinamide], the Ki worked out at 0.7 nM. As to `C[C@H](NC(=O)c1ccc(OCc2c(-c3ccc(Cl)cc3)noc2CO)nc1)C(F)(F)F` [Example 25, 6-[3-(4-Chloro-phenyl)-5-hydroxymethyl-isoxazol-4-ylmethoxy]-N-([S]-2,2,2-trifluoro-1-methyl-ethyl)-nicotinamide], the Ki worked out at 1.7 nM.

In the case of `CC(C)NC(=O)c1ccc(OCc2c(-c3ccc(F)c(F)c3)noc2CO)nc1` [Example 28, 6-[3-(3,4-Difluoro-phenyl)-5-hydroxymethyl-isoxazol-4-ylmethoxy]-N-isopropyl-nicotinamide], the Ki is 1.5 nM.

Turning to `O=C(NC1CCOCC1)c1ccc(OCc2c(-c3ccc(F)c(F)c3)noc2CO)nc1` [Example 29, 6-[3-(3,4-Difluoro-phenyl)-5-hydroxymethyl-isoxazol-4-ylmethoxy]-N-(tetrahydro-pyran-4-yl)-nicotinamide], the Ki was 2 nM.

For the origin of these results see patent US8222246B2, “Substituted isoxazoles” (Hoffmann-La Roche Inc., priority 2009, dated 2012).
